Values of other authors, collected in patent publication US5977101A, “Benzimidazoles/Imidazoles Linked to a Fibrinogen Receptor Antagonist Template Having Vitronectin Receptor Antagonist Activity” (SmithKline Beecham Corporation, priority 1996, dated 1999).

Assays:
[1] = test system: osteoclasts; conditions: Sato et al. 1990; Bertolini et al.
[2] = test system: bone resorption; conditions: Sato et al., J. Cell Biol. 1990
[3] = test system: bone resorption; conditions: rat; Fisher et al., Endocrinology 1993

Substance	inhibition of attachment of osteoclasts to bone [1]	inhibition of bone resorption in tissue culture [2]	inhibition of bone resorption in vivo [3]
cylco-S,S-N^α -acetyl-cysteinyl-N^α -methyl-argininyl-glycyl-aspartyl-penicillamine	inhibits	–	–
echistatin	inhibits	potent inhibitor	inhibits
